Source: patent publication US8299070B2, “Indole compounds and pharmaceutical use thereof” (Japan Tobacco Inc., priority 2009, dated 2012)
pIC50: −log10 of the molar value.

The compounds below were run against T1, hITK enzyme (FLAG-tagged full-length hITK) (Homo sapiens, UniProt Q08881) (assay: ITK inhibitory activity (HTRF kinase assay, biotinylated GST-SLP76 substrate)). Details: IC50 calculated from the 2 test compound concentrations sandwiching 50% ITK inhibitory rate.
T1 construct: strongly expressing FLAG-tagged full-length hITK in Sf9 cells; FLAG; made in house; host or cells: Sf9 insect cells (ITK); Escherichia coli (GST-SLP76 substrate)
T1 sequence (Q08881 1-620): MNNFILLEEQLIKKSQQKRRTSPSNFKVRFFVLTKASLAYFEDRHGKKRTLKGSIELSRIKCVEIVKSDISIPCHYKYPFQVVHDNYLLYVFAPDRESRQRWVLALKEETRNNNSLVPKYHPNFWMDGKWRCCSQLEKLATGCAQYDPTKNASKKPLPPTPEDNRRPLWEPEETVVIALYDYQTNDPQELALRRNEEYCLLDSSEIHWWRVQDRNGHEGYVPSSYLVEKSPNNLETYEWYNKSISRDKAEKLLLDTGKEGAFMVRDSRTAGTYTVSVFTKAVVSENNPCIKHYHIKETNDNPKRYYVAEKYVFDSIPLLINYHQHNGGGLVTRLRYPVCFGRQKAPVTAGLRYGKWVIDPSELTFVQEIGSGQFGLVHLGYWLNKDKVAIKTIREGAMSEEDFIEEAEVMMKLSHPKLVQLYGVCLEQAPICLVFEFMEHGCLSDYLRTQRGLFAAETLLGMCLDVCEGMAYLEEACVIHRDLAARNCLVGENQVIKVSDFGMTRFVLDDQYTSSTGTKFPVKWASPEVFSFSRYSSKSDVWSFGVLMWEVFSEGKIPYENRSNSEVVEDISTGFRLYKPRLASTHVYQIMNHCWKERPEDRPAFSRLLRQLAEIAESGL
Format: biochemical
Method in brief: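 Sf9-expressed hITK (50 ng/mL enzyme solution) reacted 10 min at RT in MOPS pH 7.0, 10 mmol/L MgCl2, 1 mmol/L DTT with E. coli SLP76 aa95–175 substrate; substrate solution held 100 µmol/L ATP (6 µmol/L for selected compounds). HTRF 665/620 ratio, blank-corrected; IC50 interpolated between two concentrations bracketing 50% inhibition.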

Row | Compound | pIC50
1 | CC(=O)N(CCO)c1ccc2cc(-c3n[nH]c4c3CCC(C)(C)C4)[nH]c2c1 [Example 214] | > 8.52
2 | CN(C)CCN(C(=O)C1CCCCC1)c1ccc2cc(-c3n[nH]c4c3CCC(C)(C)C4)[nH]c2c1 [Example 215] | > 8.52
3 | CN(C)CCN(C(=O)C1CCOCC1)c1ccc2cc(-c3n[nH]c4c3CCC(C)(C)C4)[nH]c2c1 [Example 216] | 8.10
4 | CN(C)CCN(C(=O)C1CCOC1)c1ccc2cc(-c3n[nH]c4c3CCC(C)(C)C4)[nH]c2c1 (centres unmarked) [Example 217] | > 8.52
5 | CN(C)CCCN(C(=O)C1CCCCC1)c1ccc2cc(-c3n[nH]c4c3CCC(C)(C)C4)[nH]c2c1 [Example 218] | > 8.52
6 | CN(C)CCN(C(=O)CC1CCCCC1)c1ccc2cc(-c3n[nH]c4c3CCC(C)(C)C4)[nH]c2c1 [Example 219] | 8.40
7 | CN(C)CCN(C(=O)C1CCCO1)c1ccc2cc(-c3n[nH]c4c3CCC(C)(C)C4)[nH]c2c1 (centres unmarked) [Example 220] | > 8.52
8 | CN(C)CCN(C(=O)CC1CCOCC1)c1ccc2cc(-c3n[nH]c4c3CCC(C)(C)C4)[nH]c2c1 [Example 221] | 8.52
9 | COCC(=O)N(CCN(C)C)c1ccc2cc(-c3n[nH]c4c3CCC(C)(C)C4)[nH]c2c1 [Example 222] | > 8.52
10 | CN(C)CCCN(C(=O)C1CCOCC1)c1ccc2cc(-c3n[nH]c4c3CCC(C)(C)C4)[nH]c2c1 [Example 223] | 8.30
11 | CN(C)CCCN(C(=O)C1CCCO1)c1ccc2cc(-c3n[nH]c4c3CCC(C)(C)C4)[nH]c2c1 (centres unmarked) [Example 224] | 9.00
12 | CN(C)CCCN(C(=O)C1CCOC1)c1ccc2cc(-c3n[nH]c4c3CCC(C)(C)C4)[nH]c2c1 (centres unmarked) [Example 225] | 8.70
13 | CN(C)CCCN(C(=O)CC1CCOCC1)c1ccc2cc(-c3n[nH]c4c3CCC(C)(C)C4)[nH]c2c1 [Example 226] | 8.70
14 | CC1(C)CCc2c(-c3cc4ccc(N5CCC(O)C5=O)cc4[nH]3)n[nH]c2C1 (centres unmarked) [Example 227] | 7.47
15 | CC1(C)CCc2c(-c3cc4ccc(N5CCC(CO)C5=O)cc4[nH]3)n[nH]c2C1 (centres unmarked) [Example 228] | 7.40
16 | CC1CCN(c2ccc3cc(-c4n[nH]c5c4CCC(C)(C)C5)[nH]c3c2)C1=O (centres unmarked) [Example 229] | 7.42

Row | Compound | pIC50
17 | CC1(C)CCc2c(-c3cc4ccc(N5CCC(C)(CO)C5=O)cc4[nH]3)n[nH]c2C1 (centres unmarked) [Example 230] | 7.60
18 | CC1(C)CCc2c(-c3cc4ccc(N(CCO)C(=O)C5CCCC5)cc4[nH]3)n[nH]c2C1 [Example 231] | 8.70
19 | CC1(C)CCc2c(-c3cc4ccc(N(CCO)C(=O)CC5CCCOC5)cc4[nH]3)n[nH]c2C1 (centres unmarked) [Example 232] | 8.52
20 | CO[C@H]1CC[C@H](C(=O)N(CCO)c2ccc3cc(-c4n[nH]c5c4CCC(C)(C)C5)[nH]c3c2)CC1 [Example 233] | 8.00
21 | CC1(C)CCc2c(-c3cc4ccc(N(CCO)C(=O)[C@H]5CC[C@H](O)CC5)cc4[nH]3)n[nH]c2C1 [Example 234] | 7.80
22 | CC1(C)CCc2c(-c3cc4ccc(N(CCO)C(=O)CC5CCCCC5)cc4[nH]3)n[nH]c2C1 [Example 235] | 8.10
23 | CC1(C)CCc2c(-c3cc4ccc(N(CCO)C(=O)C5CCOCC5)cc4[nH]3)n[nH]c2C1 [Example 236] | 8.22
24 | CC1(C)CCc2c(-c3cc4ccc(N(CCO)C(=O)C5CCCO5)cc4[nH]3)n[nH]c2C1 (centres unmarked) [Example 237] | 8.70
25 | CC1(C)CCc2c(-c3cc4ccc(N(CCO)C(=O)C5CCOC5)cc4[nH]3)n[nH]c2C1 (centres unmarked) [Example 238] | 8.70
26 | CC1(C)CCc2c(-c3cc4ccc(N(CCO)C(=O)C5CCCCC5)cc4[nH]3)n[nH]c2C1 [Example 239] | 8.30
27 | CO[C@H]1CC[C@@H](C(=O)N(CCO)c2ccc3cc(-c4n[nH]c5c4CCC(C)(C)C5)[nH]c3c2)CC1 [Example 240] | 8.52
28 | CC(C(=O)N(CCO)c1ccc2cc(-c3n[nH]c4c3CCC(C)(C)C4)[nH]c2c1)C1CCCCC1 (centres unmarked) [Example 241] | 7.64
29 | CC(C(=O)N(CCO)c1ccc2cc(-c3n[nH]c4c3CCC(C)(C)C4)[nH]c2c1)C1CCOCC1 (centres unmarked) [Example 242] | 8.52
30 | COC1(C)CCN(c2ccc3cc(-c4n[nH]c5c4CCC(C)(C)C5)[nH]c3c2)C1=O (centres unmarked) [Example 243] | 7.62
31 | CC1(C)CCc2c(-c3cc4ccc(N5CCC(C)(O)C5=O)cc4[nH]3)n[nH]c2C1 (centres unmarked) [Example 244] | 7.64

The next lines start with the values.

Row | pIC50 | Compound
32 | 8.00 | CC1(C)CCc2c(-c3cc4ccc(N(CCO)C(=O)C(O)C5CCCOC5)cc4[nH]3)n[nH]c2C1 (centres unmarked) [Example 245]
33 | 8.15 | CC1(C)CCc2c(-c3cc4ccc(N(CCO)C(=O)C(O)C5CCCOC5)cc4[nH]3)n[nH]c2C1 (centres unmarked) [Example 246]
34 | 8.40 | CC(C)CC(=O)N(CCO)c1ccc2cc(-c3n[nH]c4c3CCC(C)(C)C4)[nH]c2c1 [Example 247]
35 | 8.70 | CC1(C)CCc2c(-c3cc4ccc(N(CCO)C(=O)[C@H]5CC[C@@H](O)CC5)cc4[nH]3)n[nH]c2C1 [Example 248]
36 | 8.15 | CC1(C)CCc2c(-c3cc4ccc(N(CCO)C(=O)CC5CCOCC5)cc4[nH]3)n[nH]c2C1 [Example 249]
37 | 6.86 | CC1(C)CCc2c(-c3cc4ccc(N5CCC(C6CCCCC6)C5=O)cc4[nH]3)n[nH]c2C1 (centres unmarked) [Example 250]
38 | 7.47 | CC1(C)CCc2c(-c3cc4ccc(N5CCC(CO)(C6CCCCC6)C5=O)cc4[nH]3)n[nH]c2C1 (centres unmarked) [Example 251]
39 | 7.96 | C[C@H](C(=O)N(CCO)c1ccc2cc(-c3n[nH]c4c3CCC(C)(C)C4)[nH]c2c1)N1CCOCC1 [Example 252]
40 | 8.70 | CC1(C)CCc2c(-c3cc4ccc(N(CCO)C(=O)CN5CCCCC5=O)cc4[nH]3)n[nH]c2C1 [Example 253]
41 | 8.30 | CC1(C)CCc2c(-c3cc4ccc(N(CCO)C(=O)CN5CCOCC5)cc4[nH]3)n[nH]c2C1 [Example 254]
42 | 8.52 | C[C@@H](C(=O)N(CCO)c1ccc2cc(-c3n[nH]c4c3CCC(C)(C)C4)[nH]c2c1)N1CCOCC1 [Example 255]
43 | 9.00 | CC1(C)CCc2c(-c3cc4ccc(N(CCO)C(=O)CN5CCCCCC5=O)cc4[nH]3)n[nH]c2C1 [Example 256]
44 | 9.00 | CC1CCN(CC(=O)N(CCO)c2ccc3cc(-c4n[nH]c5c4CCC(C)(C)C5)[nH]c3c2)C1=O (centres unmarked) [Example 257]
45 | 8.40 | CCN(c1ccc2cc(-c3n[nH]c4c3CCC(C)(C)C4)[nH]c2c1)C(=O)[C@H]1CC[C@@H](O)CC1 [Example 258]
46 | 8.52 | COCCN(c1ccc2cc(-c3n[nH]c4c3CCC(C)(C)C4)[nH]c2c1)C(=O)[C@H]1CC[C@@H](O)CC1 [Example 259]
47 | > 9.00 | CCN(C(=O)CN1CCOC(C)C1=O)c1ccc2cc(-c3n[nH]c4c3CCC(C)(C)C4)[nH]c2c1 (centres unmarked) [Example 260]

Row | pIC50 | Compound
48 | 8.52 | COCCN(C(=O)CN1C(=O)COC[C@H]1C)c1ccc2cc(-c3n[nH]c4c3CCC(C)(C)C4)[nH]c2c1 [Example 262]
49 | 8.15 | CCN(C(=O)C(C)C1CCOCC1)c1ccc2cc(-c3n[nH]c4c3CCC(C)(C)C4)[nH]c2c1 (centres unmarked) [Example 263]
50 | 8.00 | COCCN(C(=O)C(C)C1CCOCC1)c1ccc2cc(-c3n[nH]c4c3CCC(C)(C)C4)[nH]c2c1 (centres unmarked) [Example 264]
51 | 8.70 | COCCN(C(=O)CN1CCOC(C)C1=O)c1ccc2cc(-c3n[nH]c4c3CCC(C)(C)C4)[nH]c2c1 (centres unmarked) [Example 265]
52 | 8.15 | CCN(c1ccc2cc(-c3n[nH]c4c3CCC(C)(C)C4)[nH]c2c1)C(=O)[C@H]1CC[C@@H](OC)CC1 [Example 266]
53 | 8.30 | COCCN(c1ccc2cc(-c3n[nH]c4c3CCC(C)(C)C4)[nH]c2c1)C(=O)[C@H]1CC[C@@H](OC)CC1 [Example 267]
54 | 8.30 | CCN(C(=O)CC1CCOCC1)c1ccc2cc(-c3n[nH]c4c3CCC(C)(C)C4)[nH]c2c1 [Example 268]
55 | 8.22 | COCCN(C(=O)CC1CCOCC1)c1ccc2cc(-c3n[nH]c4c3CCC(C)(C)C4)[nH]c2c1 [Example 269]
56 | 8.70 | CCN(C(=O)CN1CCCCCC1=O)c1ccc2cc(-c3n[nH]c4c3CCC(C)(C)C4)[nH]c2c1 [Example 270]
57 | 8.52 | CCN(C(=O)CN1C(=O)COC[C@@H]1C)c1ccc2cc(-c3n[nH]c4c3CCC(C)(C)C4)[nH]c2c1 [Example 271]
58 | 8.52 | COCCN(C(=O)CN1C(=O)COC[C@@H]1C)c1ccc2cc(-c3n[nH]c4c3CCC(C)(C)C4)[nH]c2c1 [Example 272]
59 | 7.96 | CCN(C(=O)CC1CCC(OC)CC1)c1ccc2cc(-c3n[nH]c4c3CCC(C)(C)C4)[nH]c2c1 (centres unmarked) [Example 273]
60 | 8.05 | COCCN(C(=O)CC1CCC(OC)CC1)c1ccc2cc(-c3n[nH]c4c3CCC(C)(C)C4)[nH]c2c1 (centres unmarked) [Example 274]
61 | 8.70 | CCN(C(=O)[C@H](C)N1CCOCC1)c1ccc2cc(-c3n[nH]c4c3CCC(C)(C)C4)[nH]c2c1 [Example 275]
62 | 8.40 | COCCN(C(=O)[C@H](C)N1CCOCC1)c1ccc2cc(-c3n[nH]c4c3CCC(C)(C)C4)[nH]c2c1 [Example 276]
